Laboratory results: the supplement of paper PMC11061612

What was measured:
Experiment in all cases: Bliss excess, mean over the matrix (fraction); higher = more synergy
[1] = tested on: LU-65 (Non-Small Cell Lung Carcinoma)
Outline: (§1)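 After 24 hours at 37°C and 5% CO2 in 1536-well plates, cells in DMEM/F12 or RPMI plus 10% FBS received two-drug dose matrices for 72 hours. Viability came from CellTiter-Glo 2.0 luminescence and was scaled as inhibition, anchored at 0 by vehicle wells and at 1 by blank wells. Combination Emax is taken as the second-highest inhibition in the matrix, and Bliss excess as the observed combination effect less EA + EB − EA·EB, with EA and EB the single-agent effects.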

[2] = tested on: EW-24 (Ewing's Sarcoma)
Outline: as §1

[3] = tested on: TK10 (Kidney Carcinoma)
Outline: as §1

[4] = tested on: EFM-19 (Breast Carcinoma)
Outline: as §1

[5] = tested on: EoL-1-cell (Acute Myeloid Leukemia)
Outline: as §1

[6] = tested on: Hs-766T (Pancreatic Carcinoma)
Outline: as §1

[7] = tested on: NCI-H358 (Lung Adenocarcinoma)
Outline: as §1

[8] = tested on: NB69 (Neuroblastoma)
Outline: as §1

[9] = tested on: D-263MG (Glioblastoma)
Outline: as §1

[10] = tested on: PWR-1E (Non-Cancerous)
Outline: as §1

[11] = tested on: NUGC-3 (Gastric Carcinoma)
Outline: as §1

[12] = tested on: HSC-4 (Oral Cavity Carcinoma)
Outline: as §1

Row | SMILES | Bliss excess [1] | Bliss excess [2] | Bliss excess [3] | Bliss excess [4] | Bliss excess [5] | Bliss excess [6] | Bliss excess [7] | Bliss excess [8] | Bliss excess [9] | Bliss excess [10] | Bliss excess [11] | Bliss excess [12]
1 | C=CCn1c(=O)c2cnc(Nc3ccc(N4CCN(C)CC4)cc3)nc2n1-c1cccc(C(C)(C)O)n1 [AZD1775] + CCc1c2c(nc3ccc(O)cc13)-c1cc3c(c(=O)n1C2)COC(=O)[C@]3(O)CC [SN-38] (first compound max 1 µM, partner max 0.3 µM) | -0.0127 | -0.113 | -0.0717 | -0.0175 | 0.0324 | 0.0017 | -0.0162 | 0.0239 | 0.0132 | – | – | –
2 | C=CCn1c(=O)c2cnc(Nc3ccc(N4CCN(C)CC4)cc3)nc2n1-c1cccc(C(C)(C)O)n1 [AZD1775] + Nc1ccn([C@@H]2O[C@H](CO)[C@@H](O)C2(F)F)c(=O)n1 [Gemcitabine] (first compound max 1 µM, partner max 0.3 µM) | -0.0081 | -0.0627 | -0.0299 | 0.0061 | 0.0391 | -0.0742 | -0.0113 | 0.0419 | 0.0297 | – | – | –
3 | CN(CCO)CC[C@H](CSc1ccccc1)Nc1ccc(S(=O)(=O)NC(=O)c2ccc(N3CCC([C@@H](O)c4ccccc4-c4ccc(Cl)cc4)CC3)cc2)cc1S(=O)(=O)C(F)(F)F [AZD4320] + CS(=O)(=O)CCNCc1ccc(-c2ccc3ncnc(Nc4ccc(OCc5cccc(F)c5)c(Cl)c4)c3c2)o1 [Lapatinib] (first compound max 1 µM, 7x7, partner max 10 µM) | -0.0043 | 0.0333 | -0.0942 | 0.013 | 0.05 | -0.0586 | – | 0.0465 | -0.0288 | – | – | –
4 | Cc1c2c(nn1C)CSCc1cc(n(C)n1)CSc1cc(c3ccccc3c1)OCCCc1c(C(=O)O)n(C)c3c-2c(Cl)ccc13 [AZD5991] + CC(=O)O[C@H]1C(=O)[C@@]2(C)[C@H]([C@H](OC(=O)c3ccccc3)[C@]3(O)C[C@H](OC(=O)[C@H](O)[C@@H](NC(=O)c4ccccc4)c4ccccc4)C(C)=C1C3(C)C)[C@]1(OC(C)=O)CO[C@@H]1C[C@@H]2O [Paclitaxel] (first compound max 1 µM, 7x7, partner max 3 µM) | -0.0944 | 0.0289 | -0.0402 | 0.0948 | -0.0041 | -0.0539 | -0.0405 | 0.027 | 0.206 | – | – | –
5 | Cc1c2c(nn1C)CSCc1cc(n(C)n1)CSc1cc(c3ccccc3c1)OCCCc1c(C(=O)O)n(C)c3c-2c(Cl)ccc13 [AZD5991] + CS(=O)(=O)CCNCc1ccc(-c2ccc3ncnc(Nc4ccc(OCc5cccc(F)c5)c(Cl)c4)c3c2)o1 [Lapatinib] (first compound max 1 µM, 7x7, partner max 10 µM) | 0.0232 | – | -0.0567 | -0.0035 | – | -0.0526 | -0.0019 | 0.021 | -0.0735 | – | – | –
6 | Cc1c2c(nn1C)CSCc1cc(n(C)n1)CSc1cc(c3ccccc3c1)OCCCc1c(C(=O)O)n(C)c3c-2c(Cl)ccc13 [AZD5991] + Nc1ccn([C@@H]2O[C@H](CO)[C@@H](O)C2(F)F)c(=O)n1 [Gemcitabine] (first compound max 1 µM, 7x7, partner max 0.3 µM) | -0.0251 | 0.0048 | -0.0198 | 0.0744 | -0.0123 | -0.0234 | -0.0276 | 0.0037 | 0.08 | – | – | –
7 | C[C@@H]1COCCN1c1cc(C2([S@](C)(=N)=O)CC2)nc(-c2ccnc3[nH]ccc23)n1 [AZD6738] + C1CC(C1)(C(=O)[O-])C(=O)[O-].N.N.[Pt+2] [Carboplatin] (first compound max 10 µM, 7x7, partner max 10 µM) | -0.0954 | -0.0462 | -0.0837 | -0.0328 | -0.0132 | -0.0536 | -0.091 | -0.0502 | -0.0417 | – | – | –
8 | C[C@@H]1COCCN1c1cc(C2([S@](C)(=N)=O)CC2)nc(-c2ccnc3[nH]ccc23)n1 [AZD6738] + Nc1ccn([C@@H]2O[C@H](CO)[C@@H](O)C2(F)F)c(=O)n1 [Gemcitabine] (first compound max 10 µM, 7x7, partner max 0.3 µM) | 0.0191 | 0.0086 | -0.0417 | 0.127 | -0.081 | -0.0278 | 0.07 | 0.0147 | 0.102 | – | – | –
9 | C[C@@H](Nc1cc(F)cc(F)c1)c1cc(C(=O)N(C)C)cc2c(=O)cc(N3CCOCC3)oc12 [AZD8186] + C1CN(CCC1(C(=O)N[C@@H](CCO)C2=CC=C(C=C2)Cl)N)C3=NC=NC4=C3C=CN4 [AZD5363] (first compound max 10 µM, 7x7, partner max 10 µM) | -0.0629 | -0.0033 | -0.0661 | -0.0075 | 0 | -0.0078 | -0.0597 | 0.0248 | -0.0348 | – | – | –
10 | C[C@@H](Nc1cc(F)cc(F)c1)c1cc(C(=O)N(C)C)cc2c(=O)cc(N3CCOCC3)oc12 [AZD8186] + CC(=O)c1c(C)c2cnc(Nc3ccc(N4CCNCC4)cn3)nc2n(C2CCCC2)c1=O [Palbociclib] (first compound max 10 µM, 7x7, partner max 10 µM) | -0.0378 | 0.0598 | -0.0069 | -0.0026 | 0.0996 | 0.006 | -0.0167 | -0.0111 | 0.0181 | – | – | –
11 | C[C@@H](Oc1cc(-c2cnn(C3CCNCC3)c2)cnc1N)c1c(Cl)ccc(F)c1Cl [Crizotinib] + CC1=C(C(=CC=C1)Cl)NC(=O)C2=CN=C(S2)NC3=CC(=NC(=N3)C)N4CCN(CC4)CCO [Dasatinib] (first compound max 10 µM, 7x7, partner max 2 µM) | -0.0973 | -0.0154 | 0.0333 | 0.0874 | 0.0101 | -0.074 | -0.0813 | 0.0051 | 0.0932 | – | – | –
12 | C[C@@H](Oc1cc(-c2cnn(C3CCNCC3)c2)cnc1N)c1c(Cl)ccc(F)c1Cl [Crizotinib] + Cn1cnc2c(F)c(Nc3ccc(Br)cc3Cl)c(C(=O)NOCCO)cc21 [Selumetinib] (first compound max 10 µM, 7x7, partner max 10 µM) | 0.0003 | -0.0464 | -0.0705 | -0.0327 | 0.0352 | -0.0074 | -0.106 | -0.0283 | -0.0866 | – | – | –
13 | CS(=O)(=O)CCNCc1ccc(-c2ccc3ncnc(Nc4ccc(OCc5cccc(F)c5)c(Cl)c4)c3c2)o1 [Lapatinib] + Cn1cnc2c(F)c(Nc3ccc(Br)cc3Cl)c(C(=O)NOCCO)cc21 [Selumetinib] (first compound max 10 µM, 7x7, partner max 10 µM) | -0.0113 | -0.0473 | -0.008 | -0.0395 | -0.038 | -0.0652 | -0.0044 | -0.0397 | -0.0859 | – | – | –
14 | CS(=O)(=O)CCNCc1ccc(-c2ccc3ncnc(Nc4ccc(OCc5cccc(F)c5)c(Cl)c4)c3c2)o1 [Lapatinib] + NC1(c2ccc(-c3nc4ccn5c(=O)[nH]nc5c4cc3-c3ccccc3)cc2)CCC1 [MK-2206] (first compound max 10 µM, 7x7, partner max 10 µM) | 0.0099 | 0.0118 | 0.0616 | 0.0455 | 0.0098 | -0.0629 | -0.0733 | 0.0688 | -0.0222 | 0.0309 | 0.0527 | 0.0003
15 | O=C(c1cc(Cc2n[nH]c(=O)c3ccccc23)ccc1F)N1CCN(C(=O)C2CC2)CC1 [Olaparib] + CC1(C)CCC(CN2CCN(c3ccc(C(=O)NS(=O)(=O)c4ccc(NCC5CCOCC5)c([N+](=O)[O-])c4)c(Oc4cnc5[nH]ccc5c4)c3)CC2)=C(c2ccc(Cl)cc2)C1 [Venetoclax] (first compound max 10 µM, 7x7, partner max 1 µM) | -0.0323 | -0.0087 | -0.0727 | 0.0138 | 0.0698 | -0.0885 | -0.054 | 0.067 | -0.0659 | – | – | –
16 | O=C(c1cc(Cc2n[nH]c(=O)c3ccccc23)ccc1F)N1CCN(C(=O)C2CC2)CC1 [Olaparib] + CN(CC[C@H](CSC1=CC=CC=C1)NC2=C(C=C(C=C2)S(=O)(=O)NC(=O)C3=CC=C(C=C3)N4CCC(CC4)[C@H](C5=CC=CC=C5C6=CC=C(C=C6)Cl)O)S(=O)(=O)C(F)(F)F)CCO [AZD4320] (first compound max 10 µM, 7x7, partner max 1 µM) | -0.0739 | 0.0097 | -0.0439 | -0.015 | 0.0717 | -0.0976 | -0.0383 | 0.0663 | -0.0672 | – | – | –
17 | O=C(c1cc(Cc2n[nH]c(=O)c3ccccc23)ccc1F)N1CCN(C(=O)C2CC2)CC1 [Olaparib] + COc1nnc2ccc(N3CCC(c4ccc(OCCN5CCN(C)C(=O)[C@H]5C)cc4)CC3)nn12 [AZD5153] (first compound max 10 µM, 7x7, partner max 1 µM) | -0.0601 | -0.0469 | -0.0301 | 0.0112 | -0.0384 | -0.0857 | -0.026 | 0.0035 | -0.057 | – | – | –
18 | O=C(c1cc(Cc2n[nH]c(=O)c3ccccc23)ccc1F)N1CCN(C(=O)C2CC2)CC1 [Olaparib] + Cc1c2c(nn1C)CSCc1cc(n(C)n1)CSc1cc(c3ccccc3c1)OCCCc1c(C(=O)O)n(C)c3c-2c(Cl)ccc13 [AZD5991] (first compound max 10 µM, 7x7, partner max 1 µM) | -0.0452 | -0.0215 | -0.0699 | 0.0102 | 0.0236 | -0.0818 | -0.0513 | -0.0042 | -0.0401 | – | – | –
19 | Cc1nc(-c2cn3c(n2)-c2ccc(-c4cnn(C(C)(C)C(N)=O)c4)cc2OCC3)n(C(C)C)n1 [Taselisib] + O=C(Nc1ccc2[nH]nc(-c3ccncc3)c2c1)[C@@H]1CCN(CC(=O)N2CCN(c3ccc(-c4ncccn4)cc3)CC2)C1 [SCH772984] (first compound max 10 µM, 7x7, partner max 5 µM) | 0.214 | 0.0424 | -0.008 | 0.0524 | 0.191 | -0.0386 | 0.0402 | -0.0509 | 0.0047 | – | – | –
20 | CC1(C)CCC(CN2CCN(c3ccc(C(=O)NS(=O)(=O)c4ccc(NCC5CCOCC5)c([N+](=O)[O-])c4)c(Oc4cnc5[nH]ccc5c4)c3)CC2)=C(c2ccc(Cl)cc2)C1 [Venetoclax] + CS(=O)(=O)CCNCc1ccc(-c2ccc3ncnc(Nc4ccc(OCc5cccc(F)c5)c(Cl)c4)c3c2)o1 [Lapatinib] (first compound max 1 µM, 7x7, partner max 10 µM) | 0.0159 | -0.0183 | -0.0141 | -0.002 | 0.0351 | -0.0636 | -0.0321 | 0.0877 | -0.0669 | – | – | –
